Assays:
[1] = tested on: HEV2 (MST form) (DNA, aptamer) AGCAGATGAATCTGAATTTTT; experiment: microscale thermophoresis; settings: NaCl 300 mM, MgCl2 5 mM (aptamer buffer); 20 mM Tris pH 7.6, 0.01% Tween 20; highest E2 1000 nM
[2] = tested on: HEV1 (electrode form) (DNA, aptamer) AGCAGCTTATTGCTGAATTTTT; experiment: differential pulse voltammetry aptasensor; settings: peak current falls with log E2, from 5 pg/mL; immobilised aptamer
[3] = tested on: M70 (electrode form) (DNA, aptamer) GCTTCCAGCTTATTGAATTACACGCAGAGGGTAGCGGCTCTGCGCATTCAATTGCTGCGCGCTGAAGCGCGGAAGC; experiment: differential pulse voltammetry aptasensor; settings: peak current falls with log E2, 5 pg/mL to 20 ng/mL; immobilised aptamer
[4] = tested on: M70 (colorimetric form) (DNA, aptamer) GCTTCCAGCTTATTGAATTACACGCAGAGGGTAGCGGCTCTGCGCATTCAATTGCTGCGCGCTGAAGCGCGGAAGC; experiment: AuNP aggregation colorimetry; settings: NaCl; A660/A520 ratio rises with E2; room temperature
[5] = tested on: HEV1 (MST form) (DNA, aptamer) AGCAGCTTATTGCTGAATTTTT; experiment: microscale thermophoresis; settings: NaCl 300 mM, MgCl2 5 mM (aptamer buffer); 20 mM Tris pH 7.6, 0.01% Tween 20; E2 up to 1000 nM; 30 min incubation; abstract 92 nM
[6] = tested on: HEV1 (colorimetric form) (DNA, aptamer) AGCAGCTTATTGCTGAATTTTT; experiment: AuNP aggregation colorimetry; settings: NaCl; A660/A520 ratio rises with E2, 0.2 to 1 μg/mL; room temperature

Compound: C[C@]12CC[C@@H]3c4ccc(O)cc4CC[C@H]3[C@@H]1CC[C@@H]2O
- binding [1]: no
- binding [2]: yes
- binding [3]: yes
- binding [4]: yes
- KD [5]: 92.76 ± 66.02 nM
- binding [6]: yes

From article PMC10819485 (2024)
